Where a name gives a salt, the structure may show the parent alone.
Tests used:
Type in all cases: cell-based
Adenosine 2a receptor = target: T1, Adenosine 2a receptor (Homo sapiens, UniProt P29274); assay: Agonist activity against adenosine 2a receptor subtype (CHO cells, cAMP response element/SPAP reporter); conditions: EC50 ratio to NECA; transfected CHO cells, basal cAMP reflected by SPAP
T1 construct: expressed in transfected cells; host or cells: Chinese hamster ovary (CHO) cells, co-transfected with a CRE-SPAP reporter
T1 sequence (P29274 whole entry): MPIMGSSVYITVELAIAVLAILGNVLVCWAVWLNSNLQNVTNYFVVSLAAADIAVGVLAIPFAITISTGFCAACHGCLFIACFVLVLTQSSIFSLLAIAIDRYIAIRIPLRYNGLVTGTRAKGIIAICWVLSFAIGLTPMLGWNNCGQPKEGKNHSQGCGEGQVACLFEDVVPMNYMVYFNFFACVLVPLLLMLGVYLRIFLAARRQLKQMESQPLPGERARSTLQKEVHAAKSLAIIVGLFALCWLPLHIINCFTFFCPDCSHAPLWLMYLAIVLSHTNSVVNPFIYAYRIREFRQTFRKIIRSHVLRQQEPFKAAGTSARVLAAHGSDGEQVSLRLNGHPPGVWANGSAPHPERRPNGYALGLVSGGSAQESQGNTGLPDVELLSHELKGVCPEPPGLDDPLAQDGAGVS
Protocol: (§1) (1) Agonist Activity Against Adenosine 2a, Adenosine 1 and Adenosine 3 Receptor Subtypes.
(§2) Agonist selectivity of compounds against other human adenosine receptors is determined using Chinese hamster ovary (CHO) cells transfected with the gene for the relevant human adenosine receptor following a method based on that of Castanon and Spevak, 1994. The CHO cells are also transfected with cyclic AMP response elements promoting the gene for secreted placental alkaline phosphatase (SPAP) (Wood, 1995). The effect of test compounds may be determined by their effects on basal levels of cAMP (A2a) or on forskolin-enhanced cAMP (A1 and A3) as reflected by changes in levels of SPAP. EC50 values for compounds may then be determined as a ratio to that of the non-selective agonist N-ethyl carboxamide adenosine (NECA).
(§3) Values given in the Table are EC50 values as a ratio of that of NECA.

Adenosine 3 receptor = target: T2, Adenosine 3 receptor (Homo sapiens, UniProt P0DMS8); assay: Agonist activity against adenosine 3 receptor subtype (CHO cells, forskolin-enhanced cAMP, SPAP reporter); conditions: EC50 ratio to NECA; transfected CHO cells, forskolin-enhanced cAMP reflected by SPAP
T2 construct: expressed in transfected cells; host or cells: Chinese hamster ovary (CHO) cells, co-transfected with a CRE-SPAP reporter
T2 sequence (P0DMS8 1-318): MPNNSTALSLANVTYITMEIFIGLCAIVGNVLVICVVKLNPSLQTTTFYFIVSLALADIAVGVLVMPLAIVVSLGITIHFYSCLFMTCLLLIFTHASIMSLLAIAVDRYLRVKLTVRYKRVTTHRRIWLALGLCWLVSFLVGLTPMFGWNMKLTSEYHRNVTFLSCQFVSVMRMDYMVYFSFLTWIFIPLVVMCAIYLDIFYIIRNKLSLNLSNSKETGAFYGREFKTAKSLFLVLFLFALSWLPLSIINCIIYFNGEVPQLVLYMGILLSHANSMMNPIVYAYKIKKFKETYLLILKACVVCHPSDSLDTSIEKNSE
Protocol: as §1, §2, §3

Adenosine 1 receptor = target: T3, Adenosine 1 receptor (Homo sapiens, UniProt P30542); assay: Agonist activity against adenosine 1 receptor subtype (CHO cells, forskolin-enhanced cAMP, SPAP reporter); conditions: EC50 ratio to NECA; transfected CHO cells, forskolin-enhanced cAMP reflected by SPAP
T3 construct: expressed in transfected cells; host or cells: Chinese hamster ovary (CHO) cells, co-transfected with a CRE-SPAP reporter
T3 sequence (P30542 1-326): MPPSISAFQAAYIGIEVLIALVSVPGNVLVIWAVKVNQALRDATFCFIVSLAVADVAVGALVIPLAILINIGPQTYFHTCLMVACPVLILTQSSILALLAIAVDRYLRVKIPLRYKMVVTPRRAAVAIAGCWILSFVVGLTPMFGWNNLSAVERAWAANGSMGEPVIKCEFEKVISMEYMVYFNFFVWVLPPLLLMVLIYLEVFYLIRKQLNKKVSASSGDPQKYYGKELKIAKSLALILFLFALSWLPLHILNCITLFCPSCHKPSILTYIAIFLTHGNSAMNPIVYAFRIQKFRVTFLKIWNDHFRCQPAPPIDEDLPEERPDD
Protocol: as §1, §2, §3

## (2S,3S,4R,5R)-2-(3-Ethyl-isoxazol-5yl)-5-[6-(3-iodo-benzylamino)-2-(2-piperidin-1-yl-ethylamino)-purin-9-yl]-tetrahydro-furan-3,4-diol diformate [Example 65]
Adenosine 2a receptor
  A2a (EC50 values as a ratio of that of NECA): 4.74
Adenosine 3 receptor
  A3 (EC50 values as a ratio of that of NECA): >262
Adenosine 1 receptor
  A1 (EC50 values as a ratio of that of NECA): 128.27

## CCc1cc(C2OC(n3cnc4c(NCC(c5ccccc5)c5ccccc5)nc(NCCN5CCOCC5)nc43)C(O)C2O)on1 [Example 2, (2R,3R,4S,5S)-2-[6-(2,2-Diphenyl-ethylamino)-2-(2-morpholin-4-yl-ethylamino)-purin-9-yl]-5-(3-ethyl-isoxazol-5-yl)-tetrahydro-furan-3,4-diol diformate.]
Adenosine 2a receptor
  A2a (EC50 values as a ratio of that of NECA): 0.43
Adenosine 3 receptor
  A3 (EC50 values as a ratio of that of NECA): >545
Adenosine 1 receptor
  A1 (EC50 values as a ratio of that of NECA): 88.9

## CCc1cc(C2OC(n3cnc4c(NC(CO)Cc5ccccc5)nc(NCCN5CCOCC5)nc43)C(O)C2O)on1 [Example 51, (2S,3S,4R,5R)-2-(3-Ethyl-isoxazol-5-yl)-5-[6-(1S-hydroxymethyl-2-phenyl-ethylamino)-2-(2-morpholin-4-yl-ethylamino)-purin-9-yl]-tetrahydro-furan-3,4-diol diformate]
Adenosine 2a receptor
  A2a (EC50 values as a ratio of that of NECA): 4.86
Adenosine 3 receptor
  A3 (EC50 values as a ratio of that of NECA): >340
Adenosine 1 receptor
  A1 (EC50 values as a ratio of that of NECA): 22.53

## CCc1cc(C2OC(n3cnc4c(NCCS(=O)(=O)NC)nc(NC(CO)Cc5ccccc5)nc43)C(O)C2O)on1 (stereo not drawn) [Example 27, 2-[9-[5S-(3-Ethyl-isoxazol-5-yl)-3R,4S-dihydroxy-tetrahydro-furan-2R-yl]-2-(1S-hydroxymethyl-2-phenyl-ethylamino)-9H-purin-6-ylamino]-ethanesulfonic acid methylamide formate]
Adenosine 2a receptor
  A2a (EC50 values as a ratio of that of NECA): 3
Adenosine 3 receptor
  A3 (EC50 values as a ratio of that of NECA): >273
Adenosine 1 receptor
  A1 (EC50 values as a ratio of that of NECA): 3.18

## CCc1cc(C2OC(n3cnc4c(NCCC5CCCCC5)nc(NCCc5cn(C)cn5)nc43)C(O)C2O)on1.O=CO.O=CO [Example 21, (2R,3R,4S,5S)-2-{6-(2-Cyclohexyl-ethylamino)-2-[2-(1-methyl-1H-imidazol-4-yl)-ethylamino]-purin-9-yl}5-(3-ethyl-isoxazol-5-yl)-tetrahydro-furan-3,4-diol diformate]
Adenosine 2a receptor
  A2a (EC50 values as a ratio of that of NECA): 1.55
Adenosine 3 receptor
  A3 (EC50 values as a ratio of that of NECA): >267
Adenosine 1 receptor
  A1 (EC50 values as a ratio of that of NECA): 1624.29

## CCc1cc(C2OC(n3cnc4c(NC5CCS(=O)(=O)CC5)nc(NCCN5CCCCC5)nc43)C(O)C2O)on1.O=CO.O=CO [Example 31, (2R,3R,4S,5S)-2-[6-(1,1-Dioxo-hexahydro-1λ6-thiopyran-4-ylamino)-2-(2-piperidin-1-yl-ethylamino)-purin-9-yl]-5-(3-ethyl-isoxazol-5-yl)-tetrahydro-furan-3,4-diol diformate]
Adenosine 2a receptor
  A2a (EC50 values as a ratio of that of NECA): 10.59
Adenosine 3 receptor
  A3 (EC50 values as a ratio of that of NECA): >310
Adenosine 1 receptor
  A1 (EC50 values as a ratio of that of NECA): 577.2

## CCc1cc(C2OC(n3cnc4c(NCc5ccccc5)nc(NCCc5cn(C)cn5)nc43)C(O)C2O)on1 [Example 43, (2R,3R,4S,5S)-2-{6-Benzylamino-2-[2-(1-methyl-1H-imidazol-1-yl)-ethylamino]-purin-9-yl}-5-(3-ethyl-isoxazol-5-yl)-tetrahydro-furan-3,4-diol diformate]
Adenosine 2a receptor
  A2a (EC50 values as a ratio of that of NECA): 3.53
Adenosine 3 receptor
  A3 (EC50 values as a ratio of that of NECA): >335
Adenosine 1 receptor
  A1 (EC50 values as a ratio of that of NECA): 672.4

## CCc1cc([C@H]2O[C@@H](n3cnc4c(NCC(c5ccccc5)c5ccccc5)nc(N[C@H]5CC[C@H](N)CC5)nc43)[C@H](O)[C@@H]2O)on1.O=CO.O=CO (relative stereo) [Example 19, (2R,3R,4S,5S)-2-[2-(trans-4-Amino-cyclohexylamino)-6-(2,2-diphenyl-ethylamino)-purin-9-yl]-5-(3-ethyl-isoxazol-5-yl)-tetrahydro-furan-3,4-diol diformate]
Adenosine 2a receptor
  A2a (EC50 values as a ratio of that of NECA): 2.41
Adenosine 3 receptor
  A3 (EC50 values as a ratio of that of NECA): >295
Adenosine 1 receptor
  A1 (EC50 values as a ratio of that of NECA): 670.2

## CCC(CC)Nc1nc(NCCN2CCCCC2)nc2c1ncn2C1OC(c2cc(C)no2)C(O)C1O.O=CO.O=CO [Example 55, (2R,3R,4S,5S)-2-[6-(1-Ethyl-propylamino)-2-(2-piperidin-1-yl-ethylamino)-purin-9-yl]-5-(3-methyl-isoxazol-5-yl)-tetrahydro-furan-3,4-diol diformate]
Adenosine 2a receptor
  A2a (EC50 values as a ratio of that of NECA): 0.175
Adenosine 3 receptor
  A3 (EC50 values as a ratio of that of NECA): >353
Adenosine 1 receptor
  A1 (EC50 values as a ratio of that of NECA): 155.3

## CCc1cc(C2OC(n3cnc4c(NC(CO)Cc5ccccc5)nc(NCCN5CCCCC5)nc43)C(O)C2O)on1 [Example 45, (2S,3S,4R,5R)-2-(3-Ethyl-isoxazol-5-yl)-5-[6-(1S-hydroxymethyl-2-phenyl-ethylamino)-2-(2-piperidin-1-yl-ethylamino)-purin-9-yl]-tetrahydro-furan-3,4-diol diformate]
Adenosine 2a receptor
  A2a (EC50 values as a ratio of that of NECA): 1.93
Adenosine 3 receptor
  A3 (EC50 values as a ratio of that of NECA): >189
Adenosine 1 receptor
  A1 (EC50 values as a ratio of that of NECA): 54.04

## CCc1cc(C2OC(n3cnc4c(NC(CO)C(C)C)nc(NC(CO)Cc5ccccc5)nc43)C(O)C2O)on1 [Example 72, (2S,3S,4R,5R)-2-(3-Ethyl-isoxazol-5-yl)-5-{6-(1S-hydroxymethyl-2-methyl-propylamino)-2-(1S-hydroxymethyl-2-phenyl-ethylamino)-purin-9-yl}-tetrahydro-furan-3,4-diol diformate]
Adenosine 2a receptor
  A2a (EC50 values as a ratio of that of NECA): 5.39
Adenosine 3 receptor
  A3 (EC50 values as a ratio of that of NECA): >158
Adenosine 1 receptor
  A1 (EC50 values as a ratio of that of NECA): 23.79

## CCc1cc([C@@H]2O[C@H](n3cnc4c(NC5CCSCC5)nc(NCCc5ccccn5)nc43)[C@@H](O)[C@H]2O)on1.O=CO.O=CO [Example 30, (2R,3R,4S,5S)-2-(3Ethyl-isoxazol-5-yl)-5-[2-(2-pyridin-2-yl-ethylamino)-6-(tetrahydro-thiopyran-4-ylamino)-purin-9-yl]-tetrahydro-furan-3,4-diol diformate]
Adenosine 2a receptor
  A2a (EC50 values as a ratio of that of NECA): 4.58
Adenosine 3 receptor
  A3 (EC50 values as a ratio of that of NECA): >257
Adenosine 1 receptor
  A1 (EC50 values as a ratio of that of NECA): 108.8

## CCc1cc(C2OC(n3cnc4c(NCc5ccccc5)nc(NCCc5ccccn5)nc43)C(O)C2O)on1.O=CO.O=CO [Example 52, (2S,3S,4R,5R)-2-(3-Ethyl-isoxazol-5-yl)-5-[6-benzylamino-2-(2-pyridin-2-yl-ethylamino)-purin-yl]-tetrahydro-furan-3,4-diol diformate]
Adenosine 2a receptor
  A2a (EC50 values as a ratio of that of NECA): 21.63
Adenosine 3 receptor
  A3 (EC50 values as a ratio of that of NECA): >340
Adenosine 1 receptor
  A1 (EC50 values as a ratio of that of NECA): 1359.98

## CCc1cc(C2OC(n3cnc4c(NC5CCN(C(C)=O)CC5)nc(NC(CO)Cc5ccccc5)nc43)C(O)C2O)on1 (stereo not drawn) [Example 28, 1-{4-[9-[5S-(3-Ethyl-isoxazol-5-yl)-3R,4S-dihydroxy-tetrahydro-furan-2R-yl]-2-(1S-hydroxymethyl-2-phenyl-ethylamino)-9H-purin-6-ylamino]-piperidin-1-yl}-ethanone formate]
Adenosine 2a receptor
  A2a (EC50 values as a ratio of that of NECA): 14.5
Adenosine 3 receptor
  A3 (EC50 values as a ratio of that of NECA): >263
Adenosine 1 receptor
  A1 (EC50 values as a ratio of that of NECA): 165.8

## CCc1cc(C2OC(n3cnc4c(NC(CC)CC)nc(NCCNC(=N)N)nc43)C(O)C2O)on1 (stereo not drawn) [Example 40, N-{2-[9-[5S-(3-Ethyl-isoxazol-5-yl)-3R,4S-dihydroxy-tetrahydro-furan-2R-yl]6-(1-ethyl-propylamino)-9H-purin-2-ylamino]-ethyl}-guanidine diformate]
Adenosine 2a receptor
  A2a (EC50 values as a ratio of that of NECA): 3.38
Adenosine 3 receptor
  A3 (EC50 values as a ratio of that of NECA): >88
Adenosine 1 receptor
  A1 (EC50 values as a ratio of that of NECA): 70.53

## CCc1cc(C2OC(n3cnc4c(NCC(c5ccccc5)c5ccccc5)nc(NC5CCC(NC(C)=O)CC5)nc43)C(O)C2O)on1 (stereo not drawn) [Example 24, N-(4-{6-(2,2-Diphenyl-ethylamino)-9-[5S-(3-ethyl-isoxazol-5-yl)-3R,4S-dihydroxy-tetrahydro-furan-2R-yl]-9H-purin-2-ylamino}-cyclohexyl)-acetamide formate]
Adenosine 2a receptor
  A2a (EC50 values as a ratio of that of NECA): 0.23
Adenosine 3 receptor
  A3 (EC50 values as a ratio of that of NECA): >248
Adenosine 1 receptor
  A1 (EC50 values as a ratio of that of NECA): 573.6

— US6762170B1, “2-(purin-9-yl)-tetrahydrofuran-3,4-diol derivatives” (SmithKlineBeecham Corporation, priority 1998, dated 2004)
